The assay addresses T1, TakP (Cereibacter sphaeroides, UniProt Q3J1R2).
T1 construct: His6 (C); made in house; host or cells: E. coli BL21
The assay can be described thus: Tryptophan fluorescence quenching titration of ligand binding to TakP. Also on record: species or system Rhodobacter sphaeroides. The note with it: for Binding to purified proteins from the SmoM family (qualitative): purified proteins from the SmoM (TakP) family, stated as [15] and this study, method not specified. From the text: We overexpressed and purified TakP from Rhodobacter sphaeroides and confirmed its ability to bind a range of α-keto acids. A general feature of ESRs is that substrate binding is accompanied by a diminished fluorescence from some tryptophan residue(s) as a result of the conformational changes induced by the binding. […] This was accompanied by a shift of the emission peak: the difference spectrum between the unliganded and liganded (quenched) protein has its maximum around 345 nm, whereas the bulk fluorescence from the unliganded form peaks at 335 nm. […] There are 10 Trp residues in the TakP sequence. From the structural information describe below, it turned out that one of these Trp residues (Trp 215) is directly interacting with the ligand when present, so that its fluorescence may be strongly quenched as a result. Two others undergo a significant displacement during the open/closed transition, which may also affect their fluorescence properties. Clearly, the observed amplitude of the fluorescence quenching caused by ligand binding (~30%) implies that these sensitive residues have for some reason a larger relative contribution to the fluorescence emission than the other tryptophans of the protein.
Because of the high binding affinity of these, we had to use a sufficiently low protein concentration to obtain an accurate determination of the dissociation constant, Kd. If the protein concentration is below the Kd, allowing the presence of a significant fraction of free substrate during the titration, the Kd can be determined from a fit of the equation:
F/F0=1−ΔF×[PL]=1−ΔF×0.5(Kd+[P0]+[L0]−(Kd+[P0]+[L0])^2−4[P0][L0]) MathType@MTEF@5@5@+=feaafiart1ev1aaatCvAUfKttLearuWrP9MDH5MBPbIqV92AaeXatLxBI9gBaebbnrfifHhDYfgasaacH8akY=wiFfYdH8Gipec8Eeeu0xXdbba9frFj0=OqFfea0dXdd9vqai=hGuQ8kuc9pgc9s8qqaq=dirpe0xb9q8qiLsFr0=vr0=vr0dc8meaabaqaciaacaGaaeqabaqabeGadaaakeaacqWGgbGrcqGGVaWlcqWGgbGrdaWgaaWcbaGaeGimaadabeaakiabg2da9iabigdaXiabgkHiTiabfs5aejabdAeagjabgEna0kabcUfaBjabdcfaqjabdYeamjabc2faDjabg2da9iabigdaXiabgkHiTiabfs5aejabdAeagjabgEna0kabicdaWiabc6caUiabiwda1maabmaabaGaem4saS0aaSbaaSqaaiabdsgaKbqabaGccqGHRaWkcqGGBbWwcqWGqbaudaWgaaWcbaGaeGimaadabeaakiabc2faDjabgUcaRiabcUfaBjabdYeamnaaBaaaleaacqaIWaamaeqaaOGaeiyxa0LaeyOeI0YaaOaaaeaacqGGOaakcqWGlbWsdaWgaaWcbaGaemizaqgabeaakiabgUcaRiabcUfaBjabdcfaqnaaBaaaleaacqaIWaamaeqaaOGaeiyxa0Laey4kaSIaei4waSLaemitaW0aaSbaaSqaaiabicdaWaqabaGccqGGDbqxcqGGPaqkdaahaaWcbeqaaiabikdaYaaakiabgkHiTiabisda0iabcUfaBjabdcfaqnaaBaaaleaacqaIWaamaeqaaOGaeiyxa0Laei4waSLaemitaW0aaSbaaSqaaiabicdaWaqabaGccqGGDbqxaSqabaaakiaawIcacaGLPaaaaaa@7441@
Here, F is the fluorescence amplitude and F0 its value in the absence of ligand. Δ F is the normalized amplitude of the saturated quenching, [PL] is the concentration of liganded protein, [P0] and [L0] are the concentrations of the total protein and ligand, respectively. The protein concentration was determined from its 280 nm absorbance and pertains here to the monomeric unit (see below).
Fluorescence spectroscopy was performed using a Varian Cary Eclipse spectrofluorimeter with an excitation wavelength of 290 nm. The emission spectra were recorded between 300 and 500 nm. Ligand binding was determined from the partial quenching of this fluorescence emission. To gain a more accurate determination of the dissociation constant, the protein concentration was lowered down to 50 nM (in 50 mM Tris/HCl, pH 7) and the amplitude of the fluorescence emission was computed from an integration of the emission over the 315 nm to 360 nm range.

T1 sequence (Q3J1R2 27-365): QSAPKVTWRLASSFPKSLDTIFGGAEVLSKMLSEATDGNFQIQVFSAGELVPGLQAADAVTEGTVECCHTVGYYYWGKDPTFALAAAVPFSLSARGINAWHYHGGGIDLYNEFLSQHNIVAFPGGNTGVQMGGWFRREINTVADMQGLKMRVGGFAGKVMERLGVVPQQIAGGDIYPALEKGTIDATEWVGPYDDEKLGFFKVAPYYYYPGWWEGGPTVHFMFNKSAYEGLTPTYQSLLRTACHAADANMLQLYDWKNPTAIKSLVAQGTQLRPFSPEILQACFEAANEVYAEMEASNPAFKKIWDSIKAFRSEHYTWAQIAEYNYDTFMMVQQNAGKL

In the case of `CCC(=O)C(=O)O` [Oxobutyrate, oxobutyrate], the affinity, expressed as Kd, was 0.043 ± 0.004 µM.

Regarding `OC[C@@H](O)[C@@H](O)[C@H](O)[C@H](O)CO` [mannitol], the “Binding to purified proteins from the SmoM family (qualitative)” value is “neither bind”.

Turning to `CC(C)CC(=O)C(=O)O` [4-Methyl-2-Oxovalerate], the Kd (usually a measure of binding affinity in units of concentration) came out at 0.72 ± 0.055 µM.

On to `CCCC(=O)C(=O)O` [Oxovalerate, oxovalerate], for which binding was put at a Kd of 0.018 ± 0.003 µM.

For the compound `OC[C@@H](O)[C@@H](O)[C@H](O)[C@@H](O)CO` [sorbitol], the “Binding to purified proteins from the SmoM family (qualitative)” value is listed as “neither bind”.

Compound `CC(=O)C(=O)O` [Pyruvate, pyruvate] gave a Kd of 0.27 ± 0.02 µM.

Regarding `O=C(O)CCC(=O)C(=O)O` [α-ketoglutarate], the “Binding to TakP (qualitative)” value (fluorescence quenching titration) is reported as “No binding”.

Source of the values: PMC1839085, “Crystal structures of an Extracytoplasmic Solute Receptor from a TRAP transporter in its open and closed forms reveal a helix-swapped dimer requiring a cation for α-keto acid binding” (BMC Structural Biology, 2007).
